Laboratory results as given in patent US7776558B2, “Human G protein-coupled receptor and modulators thereof for the treatment of cell death-related disorders” (Arena Pharmaceuticals, Inc., priority 2003, dated 2010).

Columns and labels:
[1] = target: T1, FPRL2 (Homo sapiens, UniProt P25089); assay: Pertussis toxin sensitivity of signaling, adenylate cyclase assay in HEK293 cells; format: cell-based; set-up: expressed in transfected cells; conditions: pre-treated 18 to 20 hrs with 50 ng/ml pertussis toxin; 5 μM forskolin; FIG. 7
T1 sequence (P25089 1-353): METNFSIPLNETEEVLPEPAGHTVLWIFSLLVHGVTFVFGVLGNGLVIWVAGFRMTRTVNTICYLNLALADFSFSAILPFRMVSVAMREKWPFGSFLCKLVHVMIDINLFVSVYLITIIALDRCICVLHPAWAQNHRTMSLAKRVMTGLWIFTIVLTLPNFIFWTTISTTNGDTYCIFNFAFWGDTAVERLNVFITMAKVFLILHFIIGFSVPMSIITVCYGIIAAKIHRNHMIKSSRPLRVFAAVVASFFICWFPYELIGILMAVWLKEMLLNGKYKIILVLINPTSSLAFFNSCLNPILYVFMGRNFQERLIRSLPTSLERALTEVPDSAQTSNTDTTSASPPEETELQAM
Description: The pertussis toxin sensitivity of Compound 1 signalling through human FPRL2 was determined similarly.
Samples were then assessed for cAMP levels as described in Example 4, supra.

[2] = test system: differentiated SH-SY5Y cells; assay: Aβ-induced cell death of differentiated SH-SY5Y cells; format: cell-based, human; conditions: AB1-42 80 μg/ml; Humanin 1 μM; Compound 1 20 μM, 5 μM or 1 μM; Trypan Blue staining; FIG. 12
Description: SH-SY5Y is a human neuroblastoma cell line. Differentiation of SH-SY5Y into neuronal-like cells was carried out by treatment with retinoic acid (10 μM) for five days followed by treatment with BDNF (10 ng/ml) for two days. Aβ (AB1-42) was purchased from Biosource International (Camarillo, Calif.; catalog no. 03-111).
The assay was carried out in serum-free medium. AB1-42 was used at 80 μg/ml. […] Compound 1 was used at either 20 μM, 5 μM or 1 μM.
Cell survival was determined by Trypan Blue staining.

[3] = target: T2, FPRL1 (Homo sapiens, UniProt P25090); conditions: Ying et al. 2002; cited from earlier work
T2 sequence (P25090 1-351): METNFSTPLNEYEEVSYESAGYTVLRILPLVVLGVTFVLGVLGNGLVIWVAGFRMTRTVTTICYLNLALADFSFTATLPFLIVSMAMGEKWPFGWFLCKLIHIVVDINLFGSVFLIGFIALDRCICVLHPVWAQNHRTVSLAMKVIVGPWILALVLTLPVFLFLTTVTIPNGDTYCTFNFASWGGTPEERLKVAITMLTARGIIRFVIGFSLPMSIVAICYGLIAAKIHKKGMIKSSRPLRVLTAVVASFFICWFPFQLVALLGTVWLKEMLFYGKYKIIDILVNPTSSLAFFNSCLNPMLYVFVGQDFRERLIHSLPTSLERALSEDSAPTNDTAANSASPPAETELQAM

[4] = mice; Mamiya & Ukai 2001; cited from earlier work
[5] = test system: human cerebrovascular smooth muscle cells; conditions: cited from earlier work

Row | Compound | Pertussis toxin sensitivity of the inhibition of cAMP through FPRL2 [1] | Protection from Aβ-induced cell death [2] | Use of FPRL1 as receptor [3] | Learning and memory impairment [4] | Rescue from Aβ-induced toxicity [5]
1 | CC(C)c1ccc2c(c1)CCC1C(C)(C(N)=O)CCCC21C (stereo not shown) [Compound 1, 7-Isopropyl-1,4a-dimethyl-1,2,3,4,4a,9,10,10a-octahydro-phenanthrene-1-carboxylic acid amide] | pertussis sensitive | protect differentiated SH-SY5Y cells from Aβ-induced cell death | – | – | –
2 | CC[C@H](C)[C@H](NC(=O)[C@H](CCC(=O)O)NC(=O)[C@H](CO)NC(=O)[C@@H](NC(=O)[C@H](CC(C)C)NC(=O)[C@H](CC(C)C)NC(=O)[C@H](CC(C)C)NC(=O)[C@H](CC(C)C)NC(=O)[C@H](CS)NC(=O)[C@H](CO)NC(=O)[C@H](Cc1ccccc1)NC(=O)CNC(=O)[C@H](CCCNC(=N)N)NC(=O)[C@@H]1CCCN1C(=O)[C@H](C)NC(=O)[C@@H](N)CCSC)[C@@H](C)O)C(=O)N[C@@H](CC(=O)O)C(=O)N[C@@H](CC(C)C)C(=O)N1CCC[C@H]1C(=O)N[C@H](C(=O)N[C@@H](CCCCN)C(=O)N[C@@H](CCCNC(=N)N)C(=O)N[C@@H](CCCNC(=N)N)C(=O)N[C@@H](C)C(=O)O)C(C)C [Humanin] | pertussis sensitive | protect differentiated SH-SY5Y cells from Aβ-induced cell death | uses FPRL1 as a functional receptor | improve learning and memory impairment in mice | rescues human cerebrovascular smooth muscle cells from Aβ-induced toxicity
